# Measured values from publication PMC4519324, “Substrate Specificity, Inhibitor Selectivity and Structure-Function Relationships of Aldo-Keto Reductase 1B15: A Novel Human Retinaldehyde Reductase” (PLoS ONE, 2015).
# Like-named read-outs stand apart in the source and are kept apart here.
# What was measured:
# [1] = biological target: T1, AKR1B15 (Homo sapiens, UniProt C9JRZ8); assay: Spectrophotometric activity assay (NADPH decrease at 340 nm), substrate kinetics; assay type: biochemical; conditions: for Km / k cat: substrate, spectrophotometric, 0.2 mM NADPH; for Km: 100 mM sodium phosphate pH 7.0, 25°C, <1 values only approximate; for k cat: pH 7.0, 25°C
# T1 construct: made in house; host or cells: E. coli BL21(DE3), with or without chaperone plasmids pBB540/pBB542
# [2] = biological target: T2, AKR1B10 (Homo sapiens, UniProt O60218); assay: as above; assay type: biochemical; conditions: for k cat / Km: substrate, spectrophotometric; for Km: read-out: Km; for activity class: at saturating concentration of substrate for AKR1B15
# T2 construct: made in house
# [3] = biological target: T2, AKR1B10; conditions: substrate; cited from earlier work
# [4] = biological target: T3, AKR1B1 (Homo sapiens, UniProt P15121); conditions: substrate, cited from earlier work; for Km: read-out: Km
# T3 construct: made in house
# [5] = biological target: T3, AKR1B1; assay: Spectrophotometric activity assay (NADPH decrease at 340 nm), substrate kinetics; assay type: biochemical; conditions: for activity class: at saturating concentration of substrate for AKR1B15
# Description: (§1) Activities were determined in 100 mM sodium phosphate, pH 7.0, at 25°C, using 0.2 mM NADPH in 0.2-cm path length cuvettes, with freshly prepared substrate solutions. One unit of activity is defined as the amount of enzyme required to transform 1 μmol of substrate per min at 25°C.
# (§2) All compounds tested as inhibitors were dissolved in DMSO and assayed in a final concentration of 0.1% (v/v) DMSO using 6 mM D,L-glyceraldehyde as a substrate. Kinetic constant and IC50 (compound concentration that inhibits enzymatic activity by 50%) values were calculated by fitting the initial rates to the appropriate equation using Grafit 5.0 (Eritacus Software) and values were given as the mean ± standard error of three experiments. Standard error values were less than 20% of the mean values.
# [6] = biological target: T1, AKR1B15; assay: HPLC enzymatic activity assay with retinaldehyde isomers; assay type: biochemical; conditions: HPLC-based method; for k cat: pH 7.4
# Description: Activity assays with retinoids were carried out using an HPLC-based methodology. Briefly, retinaldehyde isomers were solubilized using glass tubes by a 10-min sonication at molar ratio 1:1 with fatty acid-free bovine serum albumin in 90 mM potassium phosphate, 40 mM potassium chloride, pH 7.4. The actual amount of solubilized retinoid was determined based on the corresponding molar absorption coefficient in aqueous solutions at the appropriate wavelength: ε400 = 29,500 M^−1·cm^−1 for all-trans-retinaldehyde and ε367 = 26,700 M^−1·cm^−1 for 9-cis-retinaldehyde. For retinol isomers, which were used as standards of the reaction product, their concentration was determined in hexane using ε325 = 51,770 M^−1·cm^−1 for all-trans-retinol and ε325 = 43,765 M^−1·cm^−1 for 9-cis-retinol. The reactions were started by the addition of cofactor and carried out for 15 min at 37°C in a final volume of 0.5 mL. With the aim to measure the steady-state enzymatic activity, the concentration of enzyme was kept from 25- to 100-fold lower than that of the substrate for all the enzymatic assays. The reactions were stopped by the addition of 1 mL of cold methanol and after two rounds of extraction with hexane, retinoids were analyzed by HPLC as previously described. All retinoid manipulations were performed under dim light.
# as §2
# [7] = biological target: T2, AKR1B10; design: method as in PMID 18087047; conditions: HPLC-based method; cited from earlier work
# [8] = biological target: T3, AKR1B1; design: method as in PMID 18087047; conditions: HPLC-based method; cited from earlier work
# [9] = biological target: T1, AKR1B15; assay: Inhibition screening with D,L-glyceraldehyde as substrate; assay type: biochemical; conditions: for IC50: 6 mM D,L-glyceraldehyde as substrate, 0.1% DMSO
# Description: as §1, §2
# T1 sequence (C9JRZ8 whole entry): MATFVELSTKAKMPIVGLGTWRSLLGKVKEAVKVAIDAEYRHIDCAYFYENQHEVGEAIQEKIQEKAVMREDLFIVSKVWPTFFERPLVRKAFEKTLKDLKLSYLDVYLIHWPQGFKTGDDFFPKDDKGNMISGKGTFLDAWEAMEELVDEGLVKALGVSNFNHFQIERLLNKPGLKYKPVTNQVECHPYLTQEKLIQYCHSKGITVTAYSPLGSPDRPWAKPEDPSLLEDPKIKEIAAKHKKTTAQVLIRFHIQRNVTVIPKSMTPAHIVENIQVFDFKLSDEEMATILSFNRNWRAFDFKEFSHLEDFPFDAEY
# T2 sequence (O60218 whole entry): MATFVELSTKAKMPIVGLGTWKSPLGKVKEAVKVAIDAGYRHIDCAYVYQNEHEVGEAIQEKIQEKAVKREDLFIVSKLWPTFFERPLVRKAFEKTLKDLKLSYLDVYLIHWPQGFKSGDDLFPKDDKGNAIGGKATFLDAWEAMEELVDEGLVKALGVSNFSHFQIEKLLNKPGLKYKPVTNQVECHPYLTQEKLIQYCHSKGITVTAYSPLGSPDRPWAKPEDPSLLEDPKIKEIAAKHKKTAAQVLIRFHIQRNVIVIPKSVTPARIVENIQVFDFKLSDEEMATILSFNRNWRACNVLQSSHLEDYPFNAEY
compound,measurement,setting,value
CC(C)=CCCC(C)=CC=O (mixture of isomers) [citral],Km,[1]; read-out: Km,1.5 µM
same,k cat,[1],0.0917 s⁻¹
same,k cat,[2],0.583 s⁻¹
same,Km,[2],4.5 µM
"O=CC(O)CO (racemic) [D,L-glyceraldehyde]",Km,[1]; read-out: Km,880 µM
same,k cat,[1],0.178 s⁻¹
same,Km,[3],6000 µM
same,k cat (min^−1),[3],35 ^a min^−1
same,Km,[4],50 µM
same,k cat (min^−1),[4],31 ^a min^−1
"CC(=O)C(C)=O [2,3-butanedione]",Km,[1]; read-out: Km,< 1 µM
same,k cat,[1],0.177 s⁻¹
same,Km,[3],540 µM
same,k cat (min^−1),[3],260 ^d min^−1
same,Km,[4],110 µM
same,k cat (min^−1),[4],23 ^d min^−1
"CCCC(=O)C(C)=O [2,3-hexanedione]",Km,[1]; read-out: Km,< 1 µM
same,k cat,[1],0.158 s⁻¹
same,Km,[3],51 µM
same,k cat (min^−1),[3],79 ^b min^−1
same,Km,[4],17 µM
same,k cat (min^−1),[4],49 ^b min^−1
"CC(=O)CC(C)=O [2,4-pentanedione]",Km,[1]; read-out: Km,40 µM
same,k cat,[1],0.0367 s⁻¹
same,k cat,[2],0.143 s⁻¹
same,Km,[2],58900 µM
CCC(C)=O [2-butanone],Km,[1]; read-out: Km,780 µM
same,k cat,[1],0.175 s⁻¹
same,activity class,[2],"LA (LA, low activity (≤ 10 mU/mg) was detected at saturating concentration of substrate for AKR1B15)"
same,activity class,[5],"LA (LA, low activity (≤ 10 mU/mg) was detected at saturating concentration of substrate for AKR1B15)"
O=C1C=CCCC1 [2-cyclohexen-1-one],Km,[1]; read-out: Km,365 µM
same,k cat,[1],0.0735 s⁻¹
same,activity class,[2],"LA (LA, low activity (≤ 10 mU/mg) was detected at saturating concentration of substrate for AKR1B15)"
same,activity class,[5],"LA (LA, low activity (≤ 10 mU/mg) was detected at saturating concentration of substrate for AKR1B15)"
"CCC(=O)CC(=O)CC [3,5-heptanedione]",Km,[1]; read-out: Km,1300 µM
same,k cat,[1],0.0883 s⁻¹
same,Km,[2],> 50000 µM
C=CC(C)=O [3-buten-2-one],Km,[1]; read-out: Km,21.3 µM
same,k cat,[1],0.137 s⁻¹
same,activity class,[2],"LA (LA, low activity (≤ 10 mU/mg) was detected at saturating concentration of substrate for AKR1B15)"
same,activity class,[5],"LA (LA, low activity (≤ 10 mU/mg) was detected at saturating concentration of substrate for AKR1B15)"
CCCCCC=CC(C)=O [3-nonen-2-one],Km,[1]; read-out: Km,1.7 µM
same,k cat,[1],0.113 s⁻¹
same,activity class,[2],"LA (LA, low activity (≤ 10 mU/mg) was detected at saturating concentration of substrate for AKR1B15)"
same,activity class,[5],"LA (LA, low activity (≤ 10 mU/mg) was detected at saturating concentration of substrate for AKR1B15)"
CCCCCC(O)C=CC=O (centres unmarked) [4-hydroxy-2-nonenal],Km,[1]; read-out: Km,2.2 µM
same,k cat,[1],0.0867 s⁻¹
same,Km,[3],31 µM
same,k cat (min^−1),[3],121 ^c min^−1
same,Km,[4],716 µM
same,k cat (min^−1),[4],50 ^c min^−1
CC1=C(/C=C/C(C)=C\C=C\C(C)=C\C=O)C(C)(C)CCC1 [9-cis-retinaldehyde],k cat,[6]; 37°C,0.0633 ± 0.0033 s⁻¹
same,Km,"[6]; 37°C, pH 7.4, read-out: Km",0.16 ± 0.03 µM
same,Km,[6]; read-out: Km value,0.16 µM
same,Km,[7],0.7 ± 0.1 µM
same,k cat,[7],0.015 ± 0.0017 s⁻¹
same,Km,[8],0.4 ± 0.1 µM
same,k cat,[8],0.012 ± 0.0033 s⁻¹
CC1=C(/C=C/C(C)=C/C=C/C(C)=C/C=O)C(C)(C)CCC1 [All-trans-retinaldehyde],k cat,[6]; 37°C,0.09 ± 0.0083 s⁻¹
same,Km,"[6]; 37°C, pH 7.4, read-out: Km",1 ± 0.3 µM
same,Km,[7],0.6 ± 0.1 µM
same,k cat,[7],0.45 ± 0.017 s⁻¹
same,Km,[8],1.1 ± 0.1 µM
same,k cat,[8],0.015 ± 0.0017 s⁻¹
CC(/C=C1\SC(=S)N(CC(=O)O)C1=O)=C\c1ccccc1 [Epalrestat],IC50,[9],> 50 µM
NC(=O)C1=CN([C@@H]2O[C@H](COP(=O)(O)OP(=O)(O)OC[C@H]3O[C@@H](n4cnc5c(N)ncnc54)[C@H](O)[C@@H]3O)[C@@H](O)[C@H]2O)C=CC1 [NADH],enzymatic activity relative to that with NADPH,[1]; 0.2 mM NADH,less than 5%
CC1(C)CC[C@]2(C(=O)O)CC[C@]3(C)C(=CC[C@@H]4[C@@]5(C)CC[C@H](O)C(C)(C)[C@@H]5CC[C@]43C)[C@@H]2C1 [Oleanolic acid],IC50,[9],> 100 µM
"CCCCCCCCCCCC(=O)N(C)CC(=O)[O-].[Na+] [Sarkosyl, sodium N-lauroylsarcosinate]",inhibition model,[9]; data not shown,non-competitive
O=C1NC(=O)[C@@]2(CCOc3ccc(F)cc32)N1 [Sorbinil],IC50,[9],> 100 µM
C=CC=O [acrolein],Km,[1]; read-out: Km,36 µM
same,k cat,[1],0.147 s⁻¹
same,Km,[3],110 µM
same,k cat (min^−1),[3],116 ^c min^−1
same,Km,[4],884 µM
same,k cat (min^−1),[4],11 ^c min^−1
O=Cc1ccccc1 [benzaldehyde],Km,[1],< 1 µM
same,k cat,[1],0.202 s⁻¹
same,Km,[3],9.7 µM
same,k cat (min^−1),[3],104 ^b min^−1
same,Km,[4],21 µM
same,k cat (min^−1),[4],91 ^b min^−1
O=C/C=C/c1ccccc1 [cinnamaldehyde],Km,[1]; read-out: Km,< 1 µM
same,k cat,[1],0.222 s⁻¹
same,k cat,[2],4 s⁻¹
same,Km,[2],34.7 µM
same,Km,"[5]; substrate, spectrophotometric",31 µM
same,k cat,"[5]; substrate, spectrophotometric",0.483 s⁻¹
CC(C)=CCCC(C)=CCCC(C)=CC=O [farnesal],Km,[1]; read-out: Km,< 1 µM
same,k cat,[1],0.08 s⁻¹
same,Km,[3],2.3 µM
same,k cat (min^−1),[3],30 ^b min^−1
same,Km,[4],37 µM
same,k cat (min^−1),[4],27 ^b min^−1
OC[C@H]1OC(O)[C@H](O)[C@@H](O)[C@@H]1O (some centres unmarked) [glucose],rate of reduction,[1]; 200 mM glucose,12 mU/mg
same,rate of reduction,[5]; 200 mM glucose,500 mU/mg
CCCCCC=O [hexanal],Km,[1]; read-out: Km,3.1 µM
same,k cat,[1],0.122 s⁻¹
same,Km,[3],112 µM
same,k cat (min^−1),[3],142 ^b min^−1
same,Km,[4],5 µM
same,k cat (min^−1),[4],28 ^b min^−1
O=Cc1cccnc1 [pyridine-3-aldehyde],Km,[1]; read-out: Km,2.9 µM
same,k cat,[1],0.15 s⁻¹
same,Km,[3],13 µM
same,k cat (min^−1),[3],150 ^b min^−1
same,Km,[4],10 µM
same,k cat (min^−1),[4],61 ^b min^−1
CCC/C=C/C=O [trans-2-hexenal],Km,[1]; read-out: Km,5 µM
same,k cat,[1],0.188 s⁻¹
same,Km,[3],28 µM
same,k cat (min^−1),[3],49 ^b min^−1
same,Km,[4],9 µM
same,k cat (min^−1),[4],16 ^b min^−1
